Reference: patent publication US11384097B2, “Tetrahydroisoquinoline derivative, preparation method therefor and use thereof” (ZHEJIANG HISUN PHARMACEUTICAL CO., LTD., priority 2018, dated 2022)
Like-named read-outs stand apart in the source and are kept apart here.

What was measured:
[1] = Pharmacokinetic study in SD rats (intravenous injection and intragastric administration); assay type: in vivo, Sprague Dawley (SD) rats; details: for bioavailability / half-life / AUC(0-inf) / Cmax / MRT: male, Sprague-Dawley, rat, plasma; for bioavailability: Oral (10 mg/kg) vs Injection (1 mg/kg), read-out: Bioavailability F(%); for half-life: read-out: Half-life T1/2 (converted); for AUC(0-inf): read-out: area under curve AUC0-∞; for Cmax: read-out: blood concentration Cmax; for MRT: read-out: residence time MRT
Protocol: Test Example 3. Oral Pharmacokinetic Studies of the Compounds of the Present Disclosure in SD Rats
SD rats were used as the experimental animal. The rats were intravenously injected or intragastrically administered with the compounds of the present disclosure, and the drug concentrations in plasma at different times were tested by LC/MS/MS methods, so as to research the pharmacokinetic characteristics of compounds of present disclosure in rats.
Forty-eight healthy adult Sprague Dawley (SD) male rats were purchased from Weitong Lihua Laboratory Animal Technology Co., Ltd., production license number: 11400700271077.
48 healthy adult male SD rats were fasted overnight and administered via tail vein injection (at a dosage of 1 mg/kg) and intragastrically administered (at a dosage of 10 mg/kg), respectively. The rats were fed 4 h after the administration.
About 0.2 mL of blood was collected from the jugular vein before administering and at 0.083 hours, 0.25 hours, 0.5 hours, 1 hour, 2 hours, 4 hours, 8 hours, 12 hours, and 24 hours after administering, and heparin sodium was used for anticoagulation. Blood samples were collected and placed on ice, and plasma was separated by centrifugation (centrifugation conditions: 1500 g, 10 min). The collected plasma was stored at −40° C.-20° C. before analysis.
10 μL of plasma sample was taken and 400 μL of acetonitrile (containing internal standard working solution, comprising 5 ng/mL verapamil and 50 ng/mL glibenclamide) was added. The resulting mixture was vortexed for 10 minutes, and centrifuged at 3700 rpm for 10 minutes. 70 μL of the supernatant was taken, and […] of water was added. The resulting mixture was vortexed for 10 minutes, and 2 μL of the mixture was transferred to the LC-MS/MS for sample analysis.

[2] = Metabolic stability in rat liver microsomes; assay type: in vitro ADME; details: for half-life at 1 µM: rat liver microsomes 0.5 mg/mL, 1 μM compound, NADPH 1 mM, read-out: Half-life/(T1/2, min)
Protocol: Test Example 2. Study on the Metabolic Stability of the Compound of the Present Disclosure in Rat Liver Microsomes
The purpose of this experiment is to study the metabolic stability of the compounds of the present disclosure in rat liver microsomes.
The compounds were incubated with rat liver microsomes and coenzyme NADPH was added to initiate the reaction. At 0, 5, 15, 30 and 60 minutes, 20 μL of incubation solution was taken out and transferred to 200 μL of acetonitrile containing internal standard to stop the reaction. After protein precipitation, the resulting mixture was centrifuged at 3,700 rpm for 10 minutes, and the supernatant was taken. The supernatant was diluted 1:1 with water and analyzed by LC-MS/MS method. According to the elimination half-life of the test compound in the incubation system, the in vitro intrinsic clearance rate was calculated. Midazolam was used as the internal reference compound and all incubations were performed in duplicate in parallel.
The peak area ratio analyte/internal standard (Aanalyte/AIS) is obtained by the instrument, and the remaining percentage (% Control) is calculated from the ratio Aanalyte/AIS in the non-zero time point sample to the zero time point sample. Ln (% Control) against incubation time is plotted and a linear fit was performed.

Human AT2R = target: T1, Human AT2R (Homo sapiens, UniProt P50052); experiment: Antagonistic activity assay on human AT2R ligand binding (Tag-lite HTRF, Tb-labeled-AT2R cells); details: AT2 ligand binding, red agonist fluorescent ligand
T1 construct: Terbium (Tb) donor label on the receptor; From my own knowledge, the Tag-lite format usually uses an N-terminal SNAP-tag fusion labelled with Lumi4-Tb; expressed in transfected cells
T1 sequence (P50052 1-363): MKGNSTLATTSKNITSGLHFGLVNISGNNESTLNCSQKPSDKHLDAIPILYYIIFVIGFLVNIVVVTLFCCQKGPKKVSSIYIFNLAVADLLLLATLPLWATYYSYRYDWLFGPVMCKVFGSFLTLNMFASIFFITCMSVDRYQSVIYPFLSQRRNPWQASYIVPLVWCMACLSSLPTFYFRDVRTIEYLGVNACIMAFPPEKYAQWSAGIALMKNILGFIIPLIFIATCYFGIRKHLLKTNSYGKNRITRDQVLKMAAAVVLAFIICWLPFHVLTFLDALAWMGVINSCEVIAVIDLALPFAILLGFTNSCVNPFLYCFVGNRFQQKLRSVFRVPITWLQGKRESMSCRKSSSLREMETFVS

[3] = iv, Injection (1 mg/kg), tail vein

| half-life ([1]; Oral (10 mg/kg)) [h] | AUC(0-inf) ([1]; Oral (10 mg/kg)) [ng·h/mL] | MRT ([1]; Oral (10 mg/kg)) [h] | AUC(0-inf) [1, 3] [ng·h/mL] | MRT [1, 3] [h] | half-life at 1 µM [2] [min] | SMILES | IC50 (Human AT2R) [nM] | also measured |
| --- | --- | --- | --- | --- | --- | --- | --- | --- |
| 2.1 ± 1.6 | 18100 ± 5400 | 2.2 ± 0.8 | 2550 ± 720 | 1.3 ± 0.2 |  | COc1ccc2c(c1OCc1ccccc1)CC(C(=O)NS(=O)(=O)N(C)C)N(c1nc3ccccc3o1)C2 (stereo not drawn) [Example 9, 2-(Benzo[d]oxazol-2-yl)-5-(benzyloxy)-N—(N,N-dimethylsulfonyl)-6-methoxy-1,2,3,4-tetrahydroisoquinoline-3-carboxamide] |  | bioavailability [1]: 71.1%; Cmax ([1]; Oral (10 mg/kg)): 9470 ± 5890 ng/mL; half-life [1, 3]: 1.3 ± 0.1 h |
| 3.6 ± 0.2 | 29600 ± 4670 | 5.3 ± 0.4 | 8230 ± 1090 | 1.9 ± 0.4 | 233 | COc1ccc2c(c1OCc1ccccc1)C[C@@H](C(=O)O)N(c1nc3ccc(F)cc3o1)C2 [Example 14, (S)-5-(Benzyloxy)-2-(6-fluorobenzo[d]oxazol-2-yl)-6-methoxy-1,2,3,4-tetrahydroisoquinoline-3-carboxylic acid] |  |  |
|  |  |  |  |  |  | COc1ccc2c(c1OCc1ccccc1)C[C@@H](C(=O)O)N(c1nc3ccc(Cl)cc3o1)C2 [Example 16, (S)-5-(benzyloxy)-2-(6-chlorobenzo[d]oxazol-2-yl)-6-methoxy-1,2,3,4-tetrahydroisoquinoline-3-carboxylic acid] | 36 |  |
|  |  |  |  |  |  | COc1ccc2c(c1COc1ccccc1)C[C@@H](C(=O)NS(=O)(=O)N(C)C)N(c1nc3ccc(F)cc3o1)C2 [Example 20, (S)—N—(N,N-dimethylaminosulfonyl)-2-(6-fluorobenzo[d]oxazol-2-yl)-6-methoxy-5-(phenoxymethyl)-1,2,3,4-tetrahydroisoquinoline-3-carboxamide] | 26 |  |
|  |  |  |  |  |  | COc1ccc2c(c1COc1ccccc1)C[C@@H](C(=O)NS(=O)(=O)C1CC1)N(c1nc3ccc(F)cc3o1)C2 [Example 21, (S)—N-(cyclopropylsulfonyl)-2-(6-fluorobenzo[d]oxazol-2-yl)-6-methoxy-5-(phenoxymethyl)-1,2,3,4-tetrahydroisoquinoline-3-carboxamide] | 36 |  |
| 3.9 ± 0.8 | 35700 ± 6090 | 3.7 ± 0.8 | 8020 ± 635 | 1.2 ± 0.3 |  | COc1ccc2c(c1OCc1ccccc1)C[C@@H](C(=O)O)N(c1nc3ccncc3o1)C2 [Example 22, (S)-5-(benzyloxy)-6-methoxy-2-(oxazolo[5,4-c]pyridin-2-yl)-1,2,3,4-tetrahydroisoquinoline-3-carboxylic acid] |  | remaining original drug after incubation in rat liver microsomes ([2]; rat liver microsomes, 60 minutes): ~100%; bioavailability [1]: 44.6%; Cmax ([1]; Oral (10 mg/kg)): 15900 ± 11000 ng/mL; half-life [1, 3]: 2 ± 0.6 h |
|  |  |  |  |  |  | COc1ccc2c(c1OCc1ccccc1)C[C@@H](C(=O)NS(C)(=O)=O)N(c1nc3ccc(F)cc3o1)C2 [Example 26, (S)-5-(Benzyloxy)-2-(6-fluorobenzo[d]oxazol-2-yl)-6-methoxy-N-(methylsulfonyl)-1,2,3,4-tetrahydroisoquinoline-3-carboxamide] | 37 |  |
|  |  |  |  |  | 164 | COc1ccc2c(c1OCc1ccc(F)cc1)C[C@@H](C(=O)O)N(c1nc3ccc(F)cc3o1)C2 [Example 29, (S)-2-(6-fluorobenzo[d]oxazol-2-yl)-5-((4-fluorobenzyl)oxy)-6-methoxy-1,2,3,4-tetrahydroisoquinoline-3-carboxylic acid] |  |  |
|  |  |  |  |  |  | COc1ccc2c(c1OCc1ccc(C(F)(F)F)cc1)C[C@@H](C(=O)O)N(c1nc3ccc(F)cc3o1)C2 [Example 38, (S)-2-(6-fluorobenzo[d]oxazol-2-yl)-6-methoxy-5-((4-(trifluoromethyl)benzyl)oxy)-1,2,3,4-tetrahydroisoquinoline-3-carboxylic acid] | 11 |  |
| 3.6 ± 0.3 | 15300 ± 2260 | 4.3 ± 0.6 | 3380 ± 405 | 1.9 ± 0.3 | 845 | COc1ccc(COc2c(OC)ccc3c2C[C@@H](C(=O)O)N(c2nc4ccc(F)cc4o2)C3)cn1 [Example 39, (S)-2-(6-fluorobenzo[d]oxazol-2-yl)-6-methoxy-5-((6-methoxypyridin-3-yl)methoxy)-1,2,3,4-tetrahydroisoquinoline-3-carboxylic acid] |  | Half-life T1/2 ([1]; Injection (1 mg/kg), tail vein): 2.3 ± 0.4 h; bioavailability [1]: 45.3% |
|  |  |  |  |  |  | COc1ccc(COc2c(OC)ccc3c2C[C@@H](C(=O)O)N(c2nc4ccc(C#N)cc4o2)C3)cn1 [Example 43, (S)-2-(6-cyanobenzo[d]oxazol-2-yl)-6-methoxy-5-((6-methoxypyridin-3-yl)methoxy)-1,2,3,4-tetrahydroisoquinoline-3-carboxylic acid] | 33 |  |
|  |  |  |  |  |  | COc1ccc(COc2c(OC)ccc3c2C[C@@H](C(=O)O)N(c2nc4ccc(C#N)cc4o2)C3)nc1 [Example 44, (S)-2-(6-cyanobenzo[d]oxazol-2-yl)-6-methoxy-5-((5-methoxypyridin-2-yl)methoxy)-1,2,3,4-tetrahydroisoquinoline-3-carboxylic acid] | 33 |  |
|  |  |  |  |  |  | CCS(=O)(=O)NC(=O)[C@@H]1Cc2c(ccc(OC)c2OCc2ccc(OC)cc2)CN1c1nc2ccc(F)cc2o1 [Example 45, (S)—N-(ethylsulfonyl)-2-(6-fluorobenzo[d]oxazol-2-yl)-6-methoxy-5-((4-methoxybenzyl)oxy)-1,2,3,4-tetrahydroisoquinoline-3-carboxamide] | 6 |  |
|  |  |  |  |  |  | COc1ccc(COc2c(OC)ccc3c2C[C@@H](C(=O)NS(=O)(=O)N(C)C)N(c2nc4ccc(F)cc4o2)C3)cc1 [Example 46] | 5 |  |
| 1.5 ± 0.3 | 1480 ± 715 | 2.6 ± 1 | 1230 ± 96 | 0.92 ± 0.16 | 96.3 | COc1ccc2c(c1OCc1ccccc1)C[C@@H](C(=O)O)N(C(=O)C(c1ccccc1)c1ccccc1)C2 [olodanrigan, reference compound] |  | bioavailability [1]: 12.1%; Cmax ([1]; Oral (10 mg/kg)): 470 ± 197 ng/mL; half-life [1, 3]: 1.6 ± 0.3 h |

| SMILES | half-life ([1]; Oral (10 mg/kg)) [h] | AUC(0-inf) ([1]; Oral (10 mg/kg)) [ng·h/mL] | MRT ([1]; Oral (10 mg/kg)) [h] | AUC(0-inf) [1, 3] [ng·h/mL] | MRT [1, 3] [h] | half-life at 1 µM [2] [min] | IC50 (Human AT2R) [nM] | also measured |
| --- | --- | --- | --- | --- | --- | --- | --- | --- |
| COc1ccc2c(c1OCc1ccccc1)C[C@@H](C(=O)O)N(c1nc3ccc(C#N)cc3o1)C2 [Example 15, (S)-5-(Benzyloxy)-2-(6-cyanobenzo[d]oxazol-2-yl)-6-methoxy-1,2,3,4-tetrahydroisoquinoline-3-carboxylic acid] | 4.7 ± 1.3 | 45400 ± 11900 | 6.3 ± 1.1 | 9590 ± 579 | 2 ± 0.6 | 317 | 36 | Half-life T1/2 ([1]; Injection (1 mg/kg), tail vein): 4.2 ± 1.2 h; bioavailability [1]: 47.3% |
| CCS(=O)(=O)NC(=O)[C@@H]1Cc2c(ccc(OC)c2COc2ccccc2)CN1c1nc2ccc(F)cc2o1 [Example 19, (S)—N-(ethylsulfonyl)-2-(6-fluorobenzo[d]oxazol-2-yl)-6-methoxy-5-(phenoxymethyl)-1,2,3,4-tetrahydroisoquinoline-3-carboxamide] |  |  |  |  |  | 175 | 25 |  |
| COc1ccc(COc2c(OC)ccc3c2C[C@@H](C(=O)O)N(c2nc4ccc(C#N)cc4o2)C3)cc1 [Example 42, (S)-2-(6-cyanobenzo[d]oxazol-2-yl)-6-methoxy-5-((4-methoxybenzyl)oxy)-1,2,3,4-tetrahydroisoquinoline-3-carboxylic acid] |  |  |  |  |  | 451 | 6 |  |
